Results taken from patent US20160287534A1, “METHODS FOR REVERSING FIBROSIS” (The University of Connecticut, priority 2015, published 2016).

Assays:
primary HSCs = assay: Activation of primary mouse HSCs on untreated dishes (Example 1): α-SMA qRT-PCR, immunostaining, in-cell Western; type: cell-based, C57BL/6J mice
From the text: Primary HSCs were isolated from C57BL/6J mouse liver using the collagenase/pronase digestion method (see Weiskirchen et al. Fibrosis Research, 2005, vol. 117, pp. 99-113). In brief, mice were anesthetized with ketamine/xylazine (120/6 mpk) (Butler Schein, Dublin, Ohio). Abdominal and chest cavities were opened to expose the portal vein and to locate the heart and vena cava, respectively. Subsequently, a 20 G×1″ I.V. catheter (Terumo, Somerset, N.J.) was inserted into the vena cava through the right atrium and the portal vein was cut. A mouse liver was perfused at 5 mL/min with 25 mL SC-1 solution consisting of the following (per L); 8000 mg NaCl, 400 mg KCl, 88.17 mg NaH2PO4 2H2O, 120.45 mg Na2HPO4 12H2O, 2380 mg 4-(2-hydroxyethyl)-1-piperazineethanesulfonic acid (HEPES), 350 mg NaHCO3, 190 mg ethylene glycol tetraacetic acid, and 900 mg glucose, pH 7.2-7.3. The liver was, then, digested with 300 μg/mL pronase E (Roche, Mannheim, Germany) in SC-2 solution consisting of 8000 mg NaCl, 400 mg KCl, 88.17 mg NaH2PO4 2H2O, 120.45 mg Na2HPO4 12H2O, 2380 mg HEPES, 350 mg NaHCO3, and 560 mg CaCl2 2H2O, per L, pH 7.2-7.3, followed by 600 μg/mL collagenase D (Roche, Mannheim, Germany) in SC-2 solution at 5 mL/min for 5 min each. The digested liver was harvested and filtered through a 100 μm cell strainer (Fisher Scientific, Pittsburgh, Pa.). The hepatic cells were then centrifuged at 60×g for 1 min to separate non-parenchymal cells from hepatocytes. The supernatant containing non-parenchymal cells was separated based on density using a top layer of Gey's Balanced Salt Solution (GBSS), a middle layer of 10% Nycodenz (Axis-Shield, Scotland) and a bottom layer of 14.5% Nycodenz diluted in GBSS. The tube was centrifuged at 2100×g or 20 min and the primary HSCs were collected from the interface between the GBSS and 10% Nycodenz.
LX-2 cells were kindly provided by Dr. Scott Friedman at the Icahn School of Medicine at Mount Sinai (New York, N.Y.). […]

LX-2 cells = assay: qRT-PCR of fibrogenic genes in LX-2 cells (Example 2); type: cell-based
Protocol: Mouse primary HSCs were isolated from C57BL/6J, nuclear erythroid 2-related factor 2 (NRF2) knockout (Nrf2−/−), and wild-type mice using a pronase/collagenase digestion method as described herein Example 1. The cells were then cultured on untreated petri dishes (BD Falcon, Franklin Lakes, N.J.), and maintained in a low-glucose DMEM medium supplemented with 10% FBS, 4 mM L-glutamine, and P/S (100 U/100 μg per mL). Human primary HSCs (Zen-Bio, Research Triangle Park, N.C.) were maintained in a low-glucose DMEM medium containing 2% FBS, 4 mM L-glutamine, 1× nonessential amino acids, 1× vitamins, and P/S (100 U/100 μg per mL). The cells were seeded on a collagen-coated plate for experiments (Sarstedt, Newton, N.C.). LX-2 cells, kindly provided by Dr. Scott Friedman at the Icahn School of Medicine at Mount Sinai (New York, N.Y.), were maintained in a low-glucose DMEM supplemented with 2% FBS, 4 mM L-glutamine, and P/S (100 U/100 μg per mL). All cells were cultured in a 37° C. humidified cell culture chamber with 5% CO2. Cell culture supplies were purchased from HyClone unless stated otherwise (Thermo Scientific, Logan, Utah).
Total RNA extraction, cDNA synthesis, and qRT-PCR were conducted using a Bio-Rad CFX96 Real-Time system (Bio-Rad, Hercules, Calif.) as previously described (Id.). Primer sequences will be available upon request. […]

## CC1=C(/C=C/C(C)=C/C=C/C(C)=C/C=C/C=C(C)/C=C/C=C(C)/C=C/C2=C(C)C(=O)C(O)CC2(C)C)C(C)(C)CC(O)C1=O (centres unmarked) [ASTX, astaxanthin]
Primary HSCs; 25 μM ASTX added for 2 days during HSC activation (FIG. 6A)
  α-SMA mRNA levels: significantly reduced
Primary HSCs; ASTX treatment at days 0, 2 and 4 until day 6, vs control without ASTX (FIG. 6C)
  decrease of α-SMA protein (in-cell Western): 30-40%
Primary HSCs; day 4 of incubation, ASTX for 2 days (FIG. 6B)
  α-SMA protein levels (immunostaining): markedly decreased
LX-2 cells; LX-2 cells pretreated with ASTX 12 h (FIG. 13A)
  basal levels of α-SMA and Col1A1 expression: repressed
LX-2 cells; LX-2 cells, ASTX 12 h, then 3 ng/mL TGFβ1 12 h (FIG. 13A)
  α-SMA and Col1A1 expression induced by TGFβ1: attenuated
